Reference: PubChem BioAssay AID1963982 (Molecular Pharmacology Branch, DTP, NCI, 2024)
“And” between values parts separate entries of the source, which are not always exact repeats. Equal values may be shown once.

Test system: 313798-341-R-J2-PDC spheroids, viability
Test: Anticancer human tumor 313798-341-R-J2-PDC patient-derived cervical squamous cell carcinoma cell line growth inhibition [PI3K]
Conditions: spheroids with HUVEC and MSC; for viability, T/C: stronger effect = lower value
Summary of the method: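 Three cell types, namely tumor cells, endothelial cells and mesenchymal stem cells, formed each spheroid. Combinations with four PI3K inhibitors were screened at clinically achievable concentrations decreasing by half-log, and spheroid viability was recorded.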

[1] = curve of first compound, second compound 0.0316 µM
[2] = curve of first compound, second compound 0.1 µM
[3] = curve of first compound, second compound 0.316 µM
[4] = curve of first compound, second compound 1 µM
[5] = curve of first compound, second compound 3.16 µM
[6] = curve of first compound, second compound 10 µM
[7] = second compound 0.0316 µM, first compound 0.0316 µM
[8] = second compound 0.0316 µM, first compound 0.1 µM
[9] = second compound 0.0316 µM, first compound 0.316 µM
[10] = second compound 0.0316 µM, first compound 1 µM
[11] = second compound 0.0316 µM, first compound 3.16 µM
[12] = second compound 0.0316 µM, first compound 10 µM
[13] = second compound 0.1 µM, first compound 0.0316 µM
[14] = second compound 0.1 µM, first compound 0.1 µM
[15] = second compound 0.1 µM, first compound 0.316 µM
[16] = second compound 0.1 µM, first compound 1 µM
[17] = second compound 0.1 µM, first compound 3.16 µM
[18] = second compound 0.1 µM, first compound 10 µM
[19] = second compound 0.316 µM, first compound 0.0316 µM
[20] = second compound 0.316 µM, first compound 0.1 µM
[21] = second compound 0.316 µM, first compound 0.316 µM
[22] = second compound 0.316 µM, first compound 1 µM
[23] = second compound 0.316 µM, first compound 3.16 µM
[24] = second compound 0.316 µM, first compound 10 µM
[25] = second compound 1 µM, first compound 0.0316 µM
[26] = second compound 1 µM, first compound 0.1 µM
[27] = second compound 1 µM, first compound 0.316 µM
[28] = second compound 1 µM, first compound 1 µM
[29] = second compound 1 µM, first compound 3.16 µM
[30] = second compound 1 µM, first compound 10 µM
[31] = second compound 3.16 µM, first compound 0.0316 µM
[32] = second compound 3.16 µM, first compound 0.1 µM
[33] = second compound 3.16 µM, first compound 0.316 µM
[34] = second compound 3.16 µM, first compound 1 µM
[35] = second compound 3.16 µM, first compound 3.16 µM
[36] = second compound 3.16 µM, first compound 10 µM
[37] = second compound 10 µM, first compound 0.0316 µM
[38] = second compound 10 µM, first compound 0.1 µM
[39] = second compound 10 µM, first compound 0.316 µM
[40] = second compound 10 µM, first compound 1 µM
[41] = second compound 10 µM, first compound 3.16 µM
[42] = second compound 10 µM, first compound 10 µM
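Also: spheroids exposed to compounds for seven days.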
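For viability, T/C in this document: 100% = DMSO vehicle control viability.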

C#Cc1c(F)ccc2cc(O)cc(-c3ncc4c(N5CC6CCC(C5)N6)nc(OCC56CCCN5CC(F)C6)nc4c3F)c12 (configuration not stated) + CC(Nc1ncnc2nc[nH]c12)c1cc2cccc(Cl)c2c(=O)n1-c1ccccc1
IC50 [1]: > 10000 nM | IC50 [2]: > 10000 nM | IC50 [3]: > 10000 nM | IC50 [4]: > 10000 nM | IC50 [5]: > 10000 nM | IC50 [6]: > 10000 nM | viability, T/C [7]: 95.5% | viability, T/C [8]: 95.7% | viability, T/C [9]: 99% | viability, T/C [10]: 101% | viability, T/C [11]: 101% | viability, T/C [12]: 96.9% | viability, T/C [13]: 92.5% | viability, T/C [14]: 95.8% | viability, T/C [15]: 93.2% | viability, T/C [16]: 98.3% | viability, T/C [17]: 102% | viability, T/C [18]: 102% | viability, T/C [19]: 95.3% | viability, T/C [20]: 104% | viability, T/C [21]: 90.9% | viability, T/C [22]: 93.9% | viability, T/C [23]: 99.1% | viability, T/C [24]: 100% | viability, T/C [25]: 114% | viability, T/C [26]: 99.4% | viability, T/C [27]: 90.3% | viability, T/C [28]: 94.6% | viability, T/C [29]: 104% | viability, T/C [30]: 107% | viability, T/C [31]: 110% | viability, T/C [32]: 97.2% | viability, T/C [33]: 94.3% | viability, T/C [34]: 101% | viability, T/C [35]: 90.4% | viability, T/C [36]: 99.9% | viability, T/C [37]: 93.2% | viability, T/C [38]: 83.9% | viability, T/C [39]: 81% | viability, T/C [40]: 81.2% | viability, T/C [41]: 85.1% | viability, T/C [42]: 81.9%

CC(Nc1ccc2c(c1)OCCn1cc(N3C(=O)OCC3C(F)F)nc1-2)C(N)=O (configuration not stated)
viability, T/C (compound 0.00316 µM): 96.5% [middle of 8 runs] | viability, T/C (compound 0.01 µM): 103% [middle of 8 runs] | viability, T/C (compound 0.0316 µM): 103% [middle of 8 runs] | viability, T/C (compound 0.316 µM): 76.6% [middle of 8 runs] | viability, T/C (compound 1 µM): 53.9% [middle of 8 runs] | IC50 (compound alone, run of 04/24/2023): 523 nM and 908 nM and > 1000 nM

CC(C)NCC(C(=O)N1CCN(c2ncnc3c2C(C)CC3O)CC1)c1ccc(Cl)cc1 (configuration not stated) + CC(Nc1ncnc2nc[nH]c12)c1cc2cccc(Cl)c2c(=O)n1-c1ccccc1
IC50 [1]: 1610 nM | IC50 [2]: 1870 nM | IC50 [3]: 1720 nM | IC50 [4]: 1800 nM | IC50 [5]: 1880 nM | IC50 [6]: 1410 nM | viability, T/C [7]: 114% | viability, T/C [8]: 91.3% | viability, T/C [9]: 81.7% | viability, T/C [10]: 54% | viability, T/C [11]: 40.1% | viability, T/C [12]: 29.6% | viability, T/C [13]: 102% | viability, T/C [14]: 103% | viability, T/C [15]: 90.2% | viability, T/C [16]: 65.2% | viability, T/C [17]: 36.9% | viability, T/C [18]: 30.5% | viability, T/C [19]: 94% | viability, T/C [20]: 100% | viability, T/C [21]: 84.2% | viability, T/C [22]: 62% | viability, T/C [23]: 36.9% | viability, T/C [24]: 30% | viability, T/C [25]: 97.3% | viability, T/C [26]: 100% | viability, T/C [27]: 89.9% | viability, T/C [28]: 57.5% | viability, T/C [29]: 44.2% | viability, T/C [30]: 26.9% | viability, T/C [31]: 96.7% | viability, T/C [32]: 87.4% | viability, T/C [33]: 89.8% | viability, T/C [34]: 63.2% | viability, T/C [35]: 39.1% | viability, T/C [36]: 26.7% | viability, T/C [37]: 91.3% | viability, T/C [38]: 86.3% | viability, T/C [39]: 75.9% | viability, T/C [40]: 53.7% | viability, T/C [41]: 39% | viability, T/C [42]: 27.1%

CC1(C)CCC(Nc2ncc(C(F)(F)F)c(-c3c[nH]c4c(P(C)(C)=O)c(C#N)ccc34)n2)CN1 (configuration not stated)
viability, T/C (compound 0.0316 µM): 56.6% [middle of 4 runs] | viability, T/C (compound 0.1 µM): 46.7% [middle of 4 runs] | viability, T/C (compound 0.316 µM): 50.4% [middle of 4 runs] | viability, T/C (compound 1 µM): 53.8% [middle of 4 runs] | viability, T/C (compound 3.16 µM): 58.9% [middle of 4 runs]

C#Cc1c(F)ccc2cc(O)cc(-c3ncc4c(N5CC6CCC(C5)N6)nc(OCC56CCCN5CC(F)C6)nc4c3F)c12 (configuration not stated) + COc1c(OCCCN2CCOCC2)ccc2c3n(c(=NC(=O)c4cnc(N)nc4)nc12)CCN3
IC50 (curve of first compound, second compound 0.00316 µM): > 10000 nM | IC50 (curve of first compound, second compound 0.01 µM): > 10000 nM | IC50 [1]: > 10000 nM | IC50 [2]: < 31.6 nM | IC50 [3]: < 31.6 nM | IC50 [4]: < 31.6 nM | viability, T/C (second compound 0.00316 µM, first compound 0.0316 µM): 107% | viability, T/C (second compound 0.00316 µM, first compound 0.1 µM): 103% | viability, T/C (second compound 0.00316 µM, first compound 0.316 µM): 107% | viability, T/C (second compound 0.00316 µM, first compound 1 µM): 110% | viability, T/C (second compound 0.00316 µM, first compound 3.16 µM): 108% | viability, T/C (second compound 0.00316 µM, first compound 10 µM): 100% | viability, T/C (second compound 0.01 µM, first compound 0.0316 µM): 93.6% | viability, T/C (second compound 0.01 µM, first compound 0.1 µM): 106% | viability, T/C (second compound 0.01 µM, first compound 0.316 µM): 105% | viability, T/C (second compound 0.01 µM, first compound 1 µM): 108% | viability, T/C (second compound 0.01 µM, first compound 3.16 µM): 98.7% | viability, T/C (second compound 0.01 µM, first compound 10 µM): 102% | viability, T/C [7]: 70.2% | viability, T/C [8]: 83.3% | viability, T/C [9]: 96.8% | viability, T/C [10]: 78.7% | viability, T/C [11]: 72.7% | viability, T/C [12]: 77.2% | viability, T/C [13]: 40.1% | viability, T/C [14]: 47.7% | viability, T/C [15]: 45.1% | viability, T/C [16]: 42.1% | viability, T/C [17]: 39.5% | viability, T/C [18]: 32.6% | viability, T/C [19]: 17.8% | viability, T/C [20]: 18.2% | viability, T/C [21]: 16.7% | viability, T/C [22]: 13.4% | viability, T/C [23]: 15.3% | viability, T/C [24]: 6.87% | viability, T/C [25]: 9.9% | viability, T/C [26]: 13.1% | viability, T/C [27]: 12.1% | viability, T/C [28]: 11.2% | viability, T/C [29]: 8.79% | viability, T/C [30]: 4.83%

Cn1cnc2c(F)c(Nc3ccc(Br)cc3Cl)c(C(=O)NOCCO)cc21
viability, T/C (compound 0.00949 µM): 97.9% [middle of 4 runs] | viability, T/C (compound 0.03 µM): 92% [middle of 4 runs] | viability, T/C (compound 0.0949 µM): 89.5% [middle of 4 runs] | viability, T/C (compound 0.3 µM): 93.5% [middle of 4 runs] | IC50 (curve of compound): 1380 nM and > 3000 nM
